Measurements as given in article PMC13308190, “Endothelial progenitor cell susceptibility to DNA damaging and DDR-modulating compounds determines endothelial differentiation accuracy” (Stem Cell Research & Therapy, 2026).

Tests used:
EC d6 [1] = test: Alkaline comet assay; conditions: EC d6 24 h
EC d6 [2] = test: EdU incorporation (S-phase activity); type: cell-based, mouse; conditions: EC d6 24 h; Dox up to 0.1 µM
Procedure: S-phase activity of cells was monitored by measuring EdU incorporation using the EdU-Click 488 assay according to the manufacturer’s protocol. Briefly, cells were pulse-treated with 5-ethynyl-2′-deoxyuridine (EdU) for 3 h. Alexa Fluor 488-conjugated reaction cocktail was added (30 min, RT) and nuclei were counterstained with DAPI. The percentage of EdU-positive area/DAPI-positive area was calculated by fluorescence microscopy (Olympus BX43, 20x objective).

SMILES: COc1cccc2c1C(=O)c1c(O)c3c(c(O)c1C2=O)C[C@@](O)(C(=O)CO)C[C@@H]3O[C@H]1C[C@H](N)[C@H](O)[C@H](C)O1 [Dox, doxorubicin]
- steady-state level of SSB (alkaline comet assay) (EC d6 [1]): no or only a minor increase
- number of EdU-positive cells (EC d6 [2]): remained unaffected
